Target: T1, SIRT1 (Homo sapiens, UniProt Q96EB6)
T1 sequence (Q96EB6 1-747): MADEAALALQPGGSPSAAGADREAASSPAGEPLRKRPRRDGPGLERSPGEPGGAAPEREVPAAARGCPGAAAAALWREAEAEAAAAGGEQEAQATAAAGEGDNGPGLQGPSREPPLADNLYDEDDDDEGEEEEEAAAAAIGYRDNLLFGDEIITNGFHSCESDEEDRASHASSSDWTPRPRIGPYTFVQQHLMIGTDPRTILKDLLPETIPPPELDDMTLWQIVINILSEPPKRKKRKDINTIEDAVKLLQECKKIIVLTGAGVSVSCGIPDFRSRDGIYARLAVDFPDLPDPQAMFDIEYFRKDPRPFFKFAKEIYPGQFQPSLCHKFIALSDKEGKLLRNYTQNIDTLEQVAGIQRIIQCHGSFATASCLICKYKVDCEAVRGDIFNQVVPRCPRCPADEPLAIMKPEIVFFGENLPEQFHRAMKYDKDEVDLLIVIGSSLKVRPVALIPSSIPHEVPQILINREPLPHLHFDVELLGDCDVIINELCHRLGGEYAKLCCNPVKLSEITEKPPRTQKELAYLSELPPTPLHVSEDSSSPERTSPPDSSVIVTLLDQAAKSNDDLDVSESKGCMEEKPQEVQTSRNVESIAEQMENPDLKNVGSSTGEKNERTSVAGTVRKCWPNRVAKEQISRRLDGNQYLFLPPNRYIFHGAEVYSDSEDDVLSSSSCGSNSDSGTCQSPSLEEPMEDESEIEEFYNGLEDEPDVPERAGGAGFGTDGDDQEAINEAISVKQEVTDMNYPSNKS
Assay: Mass spectrometry based assay to identify modulators of SIRT1 activity (deacetylation of p53-based acetylated peptide substrate)
Assay type: biochemical
Conditions: for Emax: 25 min, read-out: % FOLD ACT. (percent maximum fold activation); for Emax / EC1.5: SIRT1 activation
Method in brief: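 Deacetylation of a modified p53 acetyl-lysine peptide ([…], 5TMR-labelled, Nle for Met) by 10 nM N-His SIRT1 with 120 μM βNAD+, pH 8, 25 min, 25 °C. Substrate and product masses measured by MS after formic acid quench; nicotinamide defines maximal inhibition.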

O=C(c1ccnc(OCC(O)CO)c1)N1CCOc2ccc(-c3cccc(C(F)(F)F)c3)nc21 (centres unmarked) [Compound 518, (2-(2,3-dihydroxypropoxy)pyridin-4-yl)(6-(3-(trifluoromethyl)phenyl)-2H-pyrido[3,2-b][1,4]oxazin-4(3H)-yl)methanone]
Emax: ≤ 200% | EC1.5: B (EC1.5 1-25 μM)

Cc1cc(-c2ccc3c(n2)N(C(=O)Nc2ccncn2)CCCO3)ccn1 [Compound 674]
Emax: > 200% | EC1.5: B (EC1.5 1-25 μM)

O=C(Nc1ccncc1F)N1CCCCc2ccc(-c3cccc(C(F)(F)F)c3)nc21 [Compound 817]
EC1.5 (concentration giving 1.5-fold activation): 1 to 25 µM | Emax: > 200%

CN(C)c1nc(-c2cccc(F)c2)nc2c1OCCN2C(=O)Nc1ccncn1 [Compound 757]
EC1.5 (concentration giving 1.5-fold activation): > 25 µM | Emax: ≤ 200%

CN(C)Cc1cccc(-c2ccc3c(n2)N(C(=O)Nc2cccnc2)CC(C)(C)O3)c1 [Compound 677, 6-(3-((dimethylamino)methyl)phenyl)-2,2-dimethyl-N-(pyridin-3-yl)-2H-pyrido[3,2-b][1,4]oxazine-4(3H)-carboxamide]
Emax: > 200% | EC1.5: B (EC1.5 1-25 μM)

O=C(Nc1ccccn1)N1CCCOc2ccc(-c3cccc(Cl)c3)nc21 [Compound 761]
EC1.5 (concentration giving 1.5-fold activation): 1 to 25 µM | Emax: > 200%

O=C(Nc1cc(C(F)(F)F)ccn1)N1CCOc2ccc(-c3cccc(C(F)(F)F)c3)nc21 [Compound 565]
Emax: ≤ 200% | EC1.5: B (EC1.5 1-25 μM)

O=C(Nc1cccc(OC[C@H](O)CO)n1)N1CCCc2ccc(-c3cccc(F)c3)nc21 [Compound 679]
Emax: > 200% | EC1.5: A (EC1.5<1.0 μM)

O=C1CCCN(C(=O)Nc2ccccn2)c2nc(-c3cccc(Cl)c3)ccc21 [Compound 768]
EC1.5 (concentration giving 1.5-fold activation): < 1 µM | Emax: > 200%

CCN1CCCN(C(=O)Nc2ccc(F)cn2)c2nc(-c3cccc(Cl)c3)ccc21 [Compound 807]
EC1.5 (concentration giving 1.5-fold activation): > 25 µM | Emax: ≤ 200%

Cc1cc(C)nc(NC(=O)N2CCOc3cnc(-c4cccc(C(F)(F)F)c4)nc32)c1 [Compound 712]
EC1.5 (concentration giving 1.5-fold activation): > 25 µM | Emax: ≤ 200%

O=C(Nc1ccncc1)N1CCOc2ccc(-c3cccc(Cl)c3)nc21 [Compound 541, 6-(3-chlorophenyl)-N-(pyridin-4-yl)-2H-pyrido[3,2-b][1,4]oxazine-4(3H)-carboxamide]
Emax: > 200% | EC1.5: A (EC1.5<1.0 μM)

CCN1C(=O)CCN(C(=O)Nc2ccccn2)c2nc(-c3cccc(Cl)c3)ccc21 [Compound 765, 7-(3-chlorophenyl)-1-ethyl-2-oxo-N-(pyridin-2-yl)-3,4-dihydro-1H-pyrido[2,3-b][1,4]diazepine-5(2H)-carboxamide]
EC1.5 (concentration giving 1.5-fold activation): > 25 µM | Emax: ≤ 200%

O=C1NCc2cccc(NC(=O)N3CCCOc4ccc(-c5cccc(Cl)c5)nc43)c21 [Compound 885]
EC1.5 (concentration giving 1.5-fold activation): 1 to 25 µM | Emax: ≤ 200%

O=C(Nc1ccnc(OC[C@H](O)CO)n1)N1CCOc2ccc(-c3cccc(C(F)(F)F)c3)nc21 [Compound 731]
EC1.5 (concentration giving 1.5-fold activation): > 25 µM | Emax: ≤ 200%

Cc1cccc(NC(=O)N2CCCCc3ccc(-c4cccc(C(F)(F)F)c4)nc32)n1 [Compound 818]
EC1.5 (concentration giving 1.5-fold activation): > 25 µM | Emax: ≤ 200%

Cc1cc(C)nc(NC(=O)N2CCOc3ncc(-c4cccc(C(F)(F)F)c4)nc32)c1 [Compound 741]
EC1.5 (concentration giving 1.5-fold activation): 1 to 25 µM | Emax: > 200%

O=C(Nc1ccncn1)N1CCOc2c(N3CCOCC3)nc(-c3cccc(F)c3)nc21 [Compound 758]
EC1.5 (concentration giving 1.5-fold activation): > 25 µM | Emax: ≤ 200%

Cc1ncccc1NC(=O)N1CCOc2ccc(-c3cccc(C(F)(F)F)c3)nc21 [Compound 555]
Emax: ≤ 200% | EC1.5: B (EC1.5 1-25 μM)

Cn1cc(NC(=O)N2CCCOc3ccc(-c4cccc(Cl)c4)nc32)cn1 [Compound 708]
EC1.5 (concentration giving 1.5-fold activation): 1 to 25 µM | Emax: > 200%

CCN1C(=O)CCN(C(=O)Nc2ccncn2)c2nc(-c3cccc(Cl)c3)ccc21 [Compound 775]
EC1.5 (concentration giving 1.5-fold activation): > 25 µM | Emax: ≤ 200%

O=C(Oc1cccc(OCC(O)CO)c1)N1CCCc2ccc(-c3cccc(C(F)(F)F)c3)nc21 (centres unmarked) [Compound 641, 3-(2,3-dihydroxypropoxy)phenyl 7-(3-(trifluoromethyl)phenyl)-3,4-dihydro-1,8-naphthyridine-1(2H)-carboxylate]
Emax: ≤ 200% | EC1.5: B (EC1.5 1-25 μM)

CC1(C)CN(C(=O)Nc2ccncc2)c2nc(-c3cccc(F)c3)ccc2O1 [Compound 561]
Emax: > 200% | EC1.5: B (EC1.5 1-25 μM)

O=C(Nc1ccncc1)N1CCOc2c(N3CCNCC3)nc(-c3cccc(F)c3)nc21 [Compound 738, 2-(3-fluorophenyl)-4-(piperazin-1-yl)-N-(pyridin-4-yl)-6H-pyrimido[5,4-b][1,4]oxazine-8(7H)-carboxamide]
EC1.5 (concentration giving 1.5-fold activation): > 25 µM | Emax: ≤ 200%

Cc1cncc(NC(=O)N2CC(C)(C)Oc3ccc(-c4cccc(CN5CCCC5)c4)nc32)c1 [Compound 629, 2,2-dimethyl-N-(5-methylpyridin-3-yl)-6-(3-(pyrrolidin-1-ylmethyl)phenyl)-2H-pyrido[3,2-b][1,4]oxazine-4(3H)-carboxamide]
Emax: > 200% | EC1.5: B (EC1.5 1-25 μM)

Cc1csc(NC(=O)N2CCCOc3ccc(-c4cccc(N5CCCC5)c4)nc32)n1 [Compound 628]
Emax: ≤ 200% | EC1.5: B (EC1.5 1-25 μM)

O=C(Nc1c(F)c(F)c(F)c(F)c1F)N1CCCOc2ccc(-c3cccc(C(F)(F)F)c3)nc21 [Compound 693]
Emax: ≤ 200% | EC1.5: C (EC1.5>25 μM)

Cc1cc(NC(=O)N2CCCC(=O)c3ccc(-c4cccc(C(F)(F)F)c4)nc32)ccn1 [Compound 820]
EC1.5 (concentration giving 1.5-fold activation): < 1 µM | Emax: > 200%

Cc1cc(OCC(O)CO)nc(NC(=O)N2CCC(F)(F)c3ccc(-c4cccc(C(F)(F)F)c4)nc32)n1 (centres unmarked) [Compound 824]
EC1.5 (concentration giving 1.5-fold activation): 1 to 25 µM | Emax: ≤ 200%

O=C(Nc1ncccn1)N1CCCc2ccc(-c3cccc(F)c3)nc21 [Compound 665]
Emax: > 200% | EC1.5: B (EC1.5 1-25 μM)

O=C(Nc1cccc(N2CCC2)n1)N1CCOc2ccc(-c3cccc(C(F)(F)F)c3)nc21 [Compound 512, N-(6-(azetidin-1-yl)pyridin-2-yl)-6-(3-(trifluoromethyl)phenyl)-2H-pyrido[3,2-b][1,4]oxazine-4(3H)-carboxamide]
Emax: > 200% | EC1.5: B (EC1.5 1-25 μM)

CC1(C)CN(C(=O)Nc2cncc(F)c2)c2nc(-c3cccc(Cl)c3)ccc2O1 [Compound 601]
Emax: > 200% | EC1.5: A (EC1.5<1.0 μM)

CCN1CCCN(C(=O)Nc2ccncn2)c2nc(-c3cccc(Cl)c3)ccc21 [Compound 809]
EC1.5 (concentration giving 1.5-fold activation): 1 to 25 µM | Emax: > 200%

O=C(Nc1cccnc1)N1CCCc2ccc(-c3cccc(F)c3)nc21 [Compound 650]
Emax: > 200% | EC1.5: B (EC1.5 1-25 μM)

O=C(Nc1ccc(F)cn1)N1CCCCc2ccc(-c3cccc(Cl)c3)nc21 [Compound 735]
EC1.5 (concentration giving 1.5-fold activation): > 25 µM | Emax: ≤ 200%

CC1(C)CCN(C(=O)Nc2ccncc2)c2nc(-c3cccc(C(F)(F)F)c3)ccc21 [Compound 826, 4,4-dimethyl-N-(pyridin-4-yl)-7-(3-(trifluoromethyl)phenyl)-3,4-dihydro-1,8-naphthyridine-1(2H)-carboxamide]
EC1.5 (concentration giving 1.5-fold activation): < 1 µM | Emax: > 200%

O=C(Nc1ccccn1)N1CCCc2ccc(-c3cccc(Cl)c3)nc21 [Compound 652]
Emax: > 200% | EC1.5: A (EC1.5<1.0 μM)

O=C(Nc1ncccc1F)N1CCC(F)(F)c2ccc(-c3cccc(C(F)(F)F)c3)nc21 [Compound 822]
EC1.5 (concentration giving 1.5-fold activation): 1 to 25 µM | Emax: ≤ 200%

Cc1csc(NC(=O)N2CCOc3cnc(-c4cccc(C(F)(F)F)c4)nc32)n1 [Compound 709, N-(4-methylthiazol-2-yl)-2-(3-(trifluoromethyl)phenyl)-6H-pyrimido[5,4-b][1,4]oxazine-8(7H)-carboxamide]
EC1.5 (concentration giving 1.5-fold activation): > 25 µM | Emax: ≤ 200%

Cc1cnc(NC(=O)N2CCN(C)c3ccc(-c4cccc(C(F)(F)F)c4)nc32)s1 [Compound 530]
Emax: ≤ 200% | EC1.5: B (EC1.5 1-25 μM)

CC1(C)CN(C(=O)Nc2ccccn2)c2nc(-c3cccc(F)c3)ccc2O1 [Compound 760]
EC1.5 (concentration giving 1.5-fold activation): 1 to 25 µM | Emax: > 200%

O=C(Nc1ccncn1)N1CCCCc2ccc(-c3cccc(Cl)c3)nc21 [Compound 755]
EC1.5 (concentration giving 1.5-fold activation): 1 to 25 µM | Emax: > 200%

O=C(Nc1ccc(F)cn1)N1CCCOc2ccc(-c3cccc(Cl)c3)nc21 [Compound 762]
EC1.5 (concentration giving 1.5-fold activation): 1 to 25 µM | Emax: ≤ 200%
